Source: ChEMBL document CHEMBL1130057, “Tyrosine kinase inhibitors. 12. Synthesis and structure-activity relationships for 6-substituted 4-(phenylamino)pyrimido[5,4-d]pyrimidines designed as inhibitors of the epidermal growth factor receptor” (J Med Chem, 1997)

Key:
[1] = target: T1, Epidermal growth factor receptor (Homo sapiens, UniProt P00533); experiment: Tested for ability to inhibit autophosphorylation of the Epidermal growth factor receptor in human epidermoid carcinoma cells
[2] = target: T1, Epidermal growth factor receptor; experiment: Inhibition of phosphorylation of phospholipase C gamma1 by Epidermal growth factor receptor, from human A431 carcinoma cell vesicles
[3] = target: T1, Epidermal growth factor receptor; experiment: Tested for inhibition of PLC gamma-derived substrate in Epidermal growth factor receptor stimulated A431 cells
[4] = target: T1, Epidermal growth factor receptor; experiment: Tested for inhibition of autophosphorylation in Epidermal growth factor receptor stimulated A431 cells

T1 sequence (P00533 whole entry): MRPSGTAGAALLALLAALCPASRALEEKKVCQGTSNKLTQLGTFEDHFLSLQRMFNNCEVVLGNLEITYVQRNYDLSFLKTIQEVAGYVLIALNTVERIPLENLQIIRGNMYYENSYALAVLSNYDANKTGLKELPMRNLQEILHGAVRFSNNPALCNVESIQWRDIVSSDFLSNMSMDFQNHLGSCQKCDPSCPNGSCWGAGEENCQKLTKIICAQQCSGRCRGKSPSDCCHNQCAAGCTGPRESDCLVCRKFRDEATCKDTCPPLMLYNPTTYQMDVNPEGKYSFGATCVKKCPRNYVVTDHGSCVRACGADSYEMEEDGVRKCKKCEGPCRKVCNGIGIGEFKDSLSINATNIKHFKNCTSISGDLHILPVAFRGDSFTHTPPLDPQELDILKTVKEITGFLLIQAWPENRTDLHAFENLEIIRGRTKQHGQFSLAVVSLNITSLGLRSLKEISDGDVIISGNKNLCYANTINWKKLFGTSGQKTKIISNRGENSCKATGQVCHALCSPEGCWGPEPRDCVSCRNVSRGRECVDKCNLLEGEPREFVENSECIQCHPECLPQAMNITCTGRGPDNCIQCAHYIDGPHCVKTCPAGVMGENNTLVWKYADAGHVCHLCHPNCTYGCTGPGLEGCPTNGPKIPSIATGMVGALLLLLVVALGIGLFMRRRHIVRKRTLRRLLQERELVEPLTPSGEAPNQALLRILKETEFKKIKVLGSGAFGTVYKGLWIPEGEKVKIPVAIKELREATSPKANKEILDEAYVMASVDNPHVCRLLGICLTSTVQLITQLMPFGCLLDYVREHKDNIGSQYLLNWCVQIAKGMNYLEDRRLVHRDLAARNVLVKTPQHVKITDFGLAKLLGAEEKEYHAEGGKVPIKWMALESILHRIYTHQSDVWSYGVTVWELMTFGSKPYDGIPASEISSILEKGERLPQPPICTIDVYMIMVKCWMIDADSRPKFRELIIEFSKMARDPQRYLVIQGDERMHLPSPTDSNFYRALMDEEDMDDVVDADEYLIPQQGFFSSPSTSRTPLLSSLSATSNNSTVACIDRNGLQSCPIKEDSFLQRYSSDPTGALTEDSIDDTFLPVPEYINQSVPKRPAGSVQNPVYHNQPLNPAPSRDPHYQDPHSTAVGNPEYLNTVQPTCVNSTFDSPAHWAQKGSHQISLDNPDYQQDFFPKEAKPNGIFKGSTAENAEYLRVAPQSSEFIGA

SMILES	IC50 [2]	further results
Brc1cccc(Nc2ncnc3cnc(NCCN4CCOCC4)nc23)c1	0.81 nM	IC50 [1]: 3.1 nM
Cc1cccc(Nc2ncnc3cnc(N)nc23)c1	17 nM	
CNc1ncc2ncnc(Nc3cccc(Br)c3)c2n1	0.76 nM	IC50 [1]: 30 nM
Cc1cccc(Nc2ncnc3cnc(NCCN4CCOCC4)nc23)c1	2.3 nM	
Cc1cccc(Nc2ncnc3cnc(NCCc4c[nH]cn4)nc23)c1	3 nM	
Clc1ncc2ncnc(Nc3ccccc3)c2n1	2550 nM	
CNc1ccc2ncnc(Nc3cccc(Br)c3)c2c1		IC50 [3]: 11 nM
Brc1cccc(Nc2ncnc3cnc(NCCCn4ccnc4)nc23)c1	2.3 nM	
COc1ncc2ncnc(Nc3cccc(Br)c3)c2n1	3.8 nM	
Cc1cccc(Nc2ncnc3cnc(Cl)nc23)c1	380 nM	
Cc1cccc(Nc2ncnc3cnc(N(C)C)nc23)c1	4 nM	
CNc1ncc2ncnc(Nc3ccccc3)c2n1	13 nM	
Clc1ncc2ncnc(Nc3cccc(Br)c3)c2n1	82 nM	
Brc1cccc(Nc2ncnc3cnc(NCCc4c[nH]cn4)nc23)c1	0.25 nM	IC50 [1]: 5.1 nM
CN(C)c1cc2c(Nc3cccc(Br)c3)ncnc2cn1		IC50 [4]: 12 nM; IC50 [3]: 2.6 nM
Nc1ncc2ncnc(Nc3cccc(Br)c3)c2n1	1.5 nM	
CN(C)CCNc1ncc2ncnc(Nc3cccc(Br)c3)c2n1	35 nM	
